Test system: 616215-338-R-J1-PDC spheroids with HUVEC/MSC, viability
Experiment: Anticancer human tumor 616215-338-R-J1-PDC patient-derived colon adenocarcinoma cell line growth inhibition [PI3K]
Settings: for IC50: curve of first compound; for viability, T/C: stronger effect = lower value
Outline: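 Multi-cell spheroids combine tumor cells with HUVEC and human MSCs, treated with targeted agents alone or with inavolisib, alpelisib, duvelisib or copanlisib. Concentrations fall in half-log steps from at or near clinical Cmax, or from 10 microM where Cmax is unknown; viability read-out.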

[1] = second compound 0.0316 µM, first compound 0.0316 µM
[2] = second compound 0.0316 µM, first compound 0.1 µM
[3] = second compound 0.1 µM, first compound 0.0316 µM
[4] = second compound 0.1 µM, first compound 0.1 µM
[5] = second compound 0.316 µM, first compound 0.0316 µM
[6] = second compound 0.316 µM, first compound 0.1 µM
[7] = second compound 1 µM, first compound 0.0316 µM
[8] = second compound 1 µM, first compound 0.1 µM
[9] = second compound 3.16 µM, first compound 0.0316 µM
[10] = second compound 3.16 µM, first compound 0.1 µM
[11] = second compound 10 µM, first compound 0.0316 µM
[12] = second compound 10 µM, first compound 0.1 µM
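Note: spheroids exposed to agents for seven days before the viability read.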

Cn1cnc2c(F)c(Nc3ccc(Br)cc3Cl)c(C(=O)NOCCO)cc21 + CC(Nc1ncnc2nc[nH]c12)c1cc2cccc(Cl)c2c(=O)n1-c1ccccc1
IC50 (second compound 0.0316 µM): 1520 nM
IC50 (second compound 0.1 µM): 1560 nM
IC50 (second compound 0.316 µM): 1910 nM
IC50 (second compound 1 µM): 1730 nM
IC50 (second compound 3.16 µM): 1270 nM
IC50 (second compound 10 µM): 507 nM
viability, T/C (second compound 0.0316 µM, first compound 0.00949 µM): 94.3%
viability, T/C (second compound 0.0316 µM, first compound 0.03 µM): 100%
viability, T/C (second compound 0.0316 µM, first compound 0.0949 µM): 89.7%
viability, T/C (second compound 0.0316 µM, first compound 0.3 µM): 75.8%
viability, T/C (second compound 0.0316 µM, first compound 0.949 µM): 59.9%
viability, T/C (second compound 0.0316 µM, first compound 3 µM): 37.5%
viability, T/C (second compound 0.1 µM, first compound 0.00949 µM): 108%
viability, T/C (second compound 0.1 µM, first compound 0.03 µM): 96.5%
viability, T/C (second compound 0.1 µM, first compound 0.0949 µM): 89%
viability, T/C (second compound 0.1 µM, first compound 0.3 µM): 77.6%
viability, T/C (second compound 0.1 µM, first compound 0.949 µM): 51.8%
viability, T/C (second compound 0.1 µM, first compound 3 µM): 43.8%
viability, T/C (second compound 0.316 µM, first compound 0.00949 µM): 95.2%
viability, T/C (second compound 0.316 µM, first compound 0.03 µM): 90.5%
viability, T/C (second compound 0.316 µM, first compound 0.0949 µM): 86.5%
viability, T/C (second compound 0.316 µM, first compound 0.3 µM): 70.2%
viability, T/C (second compound 0.316 µM, first compound 0.949 µM): 59.6%
viability, T/C (second compound 0.316 µM, first compound 3 µM): 44.4%
viability, T/C (second compound 1 µM, first compound 0.00949 µM): 98.6%
viability, T/C (second compound 1 µM, first compound 0.03 µM): 90.8%
viability, T/C (second compound 1 µM, first compound 0.0949 µM): 87.6%
viability, T/C (second compound 1 µM, first compound 0.3 µM): 84.6%
viability, T/C (second compound 1 µM, first compound 0.949 µM): 63%
viability, T/C (second compound 1 µM, first compound 3 µM): 36.9%
viability, T/C (second compound 3.16 µM, first compound 0.00949 µM): 102%
viability, T/C (second compound 3.16 µM, first compound 0.03 µM): 96.3%
viability, T/C (second compound 3.16 µM, first compound 0.0949 µM): 83.3%
viability, T/C (second compound 3.16 µM, first compound 0.3 µM): 76.5%
viability, T/C (second compound 3.16 µM, first compound 0.949 µM): 55%
viability, T/C (second compound 3.16 µM, first compound 3 µM): 32.5%
viability, T/C (second compound 10 µM, first compound 0.00949 µM): 117%
viability, T/C (second compound 10 µM, first compound 0.03 µM): 99.1%
viability, T/C (second compound 10 µM, first compound 0.0949 µM): 93.3%
viability, T/C (second compound 10 µM, first compound 0.3 µM): 52.5%
viability, T/C (second compound 10 µM, first compound 0.949 µM): 41%
viability, T/C (second compound 10 µM, first compound 3 µM): 6.44%

CC(=O)c1c(C)c2cnc(Nc3ccc(N4CCNCC4)cn3)nc2n(C2CCCC2)c1=O + Cc1nc(NC(=O)N2CCCC2C(N)=O)sc1-c1ccnc(C(C)(C)C(F)(F)F)c1
IC50 (second compound 0.0316 µM): > 100 nM
IC50 (second compound 0.1 µM): > 100 nM
IC50 (second compound 0.316 µM): > 100 nM
IC50 (second compound 1 µM): > 100 nM
IC50 (second compound 3.16 µM): > 100 nM
IC50 (second compound 10 µM): > 100 nM
viability, T/C (second compound 0.0316 µM, first compound 0.000316 µM): 97.4%
viability, T/C (second compound 0.0316 µM, first compound 0.001 µM): 96.8%
viability, T/C (second compound 0.0316 µM, first compound 0.00316 µM): 102%
viability, T/C (second compound 0.0316 µM, first compound 0.01 µM): 110%
viability, T/C [1]: 98%
viability, T/C [2]: 113%
viability, T/C (second compound 0.1 µM, first compound 0.000316 µM): 102%
viability, T/C (second compound 0.1 µM, first compound 0.001 µM): 95.7%
viability, T/C (second compound 0.1 µM, first compound 0.00316 µM): 105%
viability, T/C (second compound 0.1 µM, first compound 0.01 µM): 87.9%
viability, T/C [3]: 104%
viability, T/C [4]: 111%
viability, T/C (second compound 0.316 µM, first compound 0.000316 µM): 109%
viability, T/C (second compound 0.316 µM, first compound 0.001 µM): 97.3%
viability, T/C (second compound 0.316 µM, first compound 0.00316 µM): 88.1%
viability, T/C (second compound 0.316 µM, first compound 0.01 µM): 99.9%
viability, T/C [5]: 104%
viability, T/C [6]: 108%
viability, T/C (second compound 1 µM, first compound 0.000316 µM): 111%
viability, T/C (second compound 1 µM, first compound 0.001 µM): 108%
viability, T/C (second compound 1 µM, first compound 0.00316 µM): 97.2%
viability, T/C (second compound 1 µM, first compound 0.01 µM): 100%
viability, T/C [7]: 103%
viability, T/C [8]: 91.7%
viability, T/C (second compound 3.16 µM, first compound 0.000316 µM): 91.8%
viability, T/C (second compound 3.16 µM, first compound 0.001 µM): 95.6%
viability, T/C (second compound 3.16 µM, first compound 0.00316 µM): 90.5%
viability, T/C (second compound 3.16 µM, first compound 0.01 µM): 98.4%
viability, T/C [9]: 105%
viability, T/C [10]: 101%
viability, T/C (second compound 10 µM, first compound 0.000316 µM): 97.5%
viability, T/C (second compound 10 µM, first compound 0.001 µM): 93%
viability, T/C (second compound 10 µM, first compound 0.00316 µM): 90.5%
viability, T/C (second compound 10 µM, first compound 0.01 µM): 93%
viability, T/C [11]: 91%
viability, T/C [12]: 97%

Cn1nccc1Nc1nccc(-c2ccn(C(CO)c3ccc(Cl)c(F)c3)c(=O)c2)n1 (stereo unspecified) + Cc1nc(NC(=O)N2CCCC2C(N)=O)sc1-c1ccnc(C(C)(C)C(F)(F)F)c1
IC50 (second compound 0.0316 µM): 3460 nM
IC50 (second compound 0.1 µM): 2980 nM
IC50 (second compound 0.316 µM): 2270 nM
IC50 (second compound 1 µM): 1580 nM
IC50 (second compound 3.16 µM): 739 nM
IC50 (second compound 10 µM): 552 nM
viability, T/C [1]: 106%
viability, T/C [2]: 81.5%
viability, T/C (second compound 0.0316 µM, first compound 0.316 µM): 83.8%
viability, T/C (second compound 0.0316 µM, first compound 1 µM): 68.9%
viability, T/C (second compound 0.0316 µM, first compound 3.16 µM): 47.8%
viability, T/C (second compound 0.0316 µM, first compound 10 µM): 37.1%
viability, T/C [3]: 97.2%
viability, T/C [4]: 97.9%
viability, T/C (second compound 0.1 µM, first compound 0.316 µM): 86.2%
viability, T/C (second compound 0.1 µM, first compound 1 µM): 58.3%
viability, T/C (second compound 0.1 µM, first compound 3.16 µM): 56.6%
viability, T/C (second compound 0.1 µM, first compound 10 µM): 33.1%
viability, T/C [5]: 96.7%
viability, T/C [6]: 86%
viability, T/C (second compound 0.316 µM, first compound 0.316 µM): 87.6%
viability, T/C (second compound 0.316 µM, first compound 1 µM): 72.1%
viability, T/C (second compound 0.316 µM, first compound 3.16 µM): 40.7%
viability, T/C (second compound 0.316 µM, first compound 10 µM): 29.1%
viability, T/C [7]: 92.4%
viability, T/C [8]: 97.8%
viability, T/C (second compound 1 µM, first compound 0.316 µM): 67.8%
viability, T/C (second compound 1 µM, first compound 1 µM): 57.7%
viability, T/C (second compound 1 µM, first compound 3.16 µM): 42.1%
viability, T/C (second compound 1 µM, first compound 10 µM): 26.8%
viability, T/C [9]: 96%
viability, T/C [10]: 89.3%
viability, T/C (second compound 3.16 µM, first compound 0.316 µM): 68%
viability, T/C (second compound 3.16 µM, first compound 1 µM): 39.3%
viability, T/C (second compound 3.16 µM, first compound 3.16 µM): 32.4%
viability, T/C (second compound 3.16 µM, first compound 10 µM): 13.9%
viability, T/C [11]: 94.2%
viability, T/C [12]: 83.9%
viability, T/C (second compound 10 µM, first compound 0.316 µM): 70.2%
viability, T/C (second compound 10 µM, first compound 1 µM): 29.7%
viability, T/C (second compound 10 µM, first compound 3.16 µM): 5.53%
viability, T/C (second compound 10 µM, first compound 10 µM): 1.47%

Reference: PubChem BioAssay AID1963978 (Molecular Pharmacology Branch, DTP, NCI, 2024)
